Earlier results as cited in article PMC7904743, “WIDOCK: a reactive docking protocol for virtual screening of covalent inhibitors” (Journal of Computer-Aided Molecular Design, 2021).
Read-outs that look alike come from different tables or passages of the source.

Columns and labels:
OTUB2 = conditions: experimental actives if % labeling higher than 50%, cited from earlier work
NUDT7 = conditions: protein labeling at 200 μM; experimental actives if % labeling higher than 50%; cited from earlier work
[1] = thiol reactivity, cited from earlier work
[2] = natural log of average kinetic rate constant
[3] = natural log of average rate constant
[4] = natural log of average rate constant k
[5] = natural logarithm of average rate constant

Structure (SMILES)	OTUB2 % labeling (OTUB2; OTUB2 protein labeling) [%]	NUDT7 % labeling (NUDT7) [%]	ln(avg k) [1, 2]	ln(avg k) [1, 3]	OTUB2 % labeling (OTUB2) [%]	ln(avg k) [1, 4]	ln(avg k) [1, 5]
CN(C)C(=O)c1ccc(NC(=O)CCl)cc1 [PCM-0102877, CN(C)C(=O)c1ccc(NC(=O)CCl)cc1]	0	0	-15.682	-15.682	–	–	–
O=C(CCl)NCc1ccccn1 [PCM-0102950, O=C(CCl)NCc1ccccn1]	0	0	-17.514	-17.514	–	–	–
O=C(CCl)Nc1ccc(F)c([N+](=O)[O-])c1 [PCM-0102238, O=C(CCl)Nc1ccc(F)c([N+](=O)[O-])c1]	–	23	–	–	32	-15.369	-15.369
Cc1ccccc1CN(C)C(=O)CCl [PCM-0102707, Cc1ccccc1CN(C)C(=O)CCl]	–	13	–	-15.717	0	–	-15.717
CC1CN(C(=O)CCl)CC(C)O1 (stereo not drawn) [PCM-0102796, CC1CN(C(=O)CCl)CC(C)O1]	0	0	-15.522	-15.522	–	–	–
Cc1nc(C2(NC(=O)CCl)CCCCC2)no1 [PCM-0102983, Cc1nc(C2(NC(=O)CCl)CCCCC2)no1]	0	10	-17.277	-17.277	–	–	–
O=C(CCl)N1CCN(Cc2ccc(Cl)s2)CC1 [PCM-0102277, O=C(CCl)N1CCN(Cc2ccc(Cl)s2)CC1]	–	0	–	–	9	-15.648	-15.648
CN(Cc1cccc(F)c1)C(=O)CCl [PCM-0102747, CN(Cc1cccc(F)c1)C(=O)CCl]	0	0	-16.175	-16.175	–	–	–
O=C(CCl)N1CCCC(c2nc3ccccc3s2)C1 (stereo not drawn) [PCM-0102425, O=C(CCl)N1CCCC(c2nc3ccccc3s2)C1]	–	28	–	–	0	-15.591	-15.591
O=C(CCl)N1CCSc2ccccc21 [PCM-0102415, O=C(CCl)N1CCSc2ccccc21]	–	10	–	–	16	-15.511	-15.511
O=C1CN(C(=O)CCl)c2ccccc2N1 [PCM-0102362, O=C1CN(C(=O)CCl)c2ccccc2N1]	–	0	–	–	0	-15.567	-15.567
COC(=O)c1cccc(NC(=O)CCl)n1 [PCM-0102977, COC(=O)c1cccc(NC(=O)CCl)n1]	0	0	-16.790	-16.790	–	–	–
N#CCN(C(=O)CCl)c1ccccc1 [PCM-0102471, N#CCN(C(=O)CCl)c1ccccc1]	–	0	–	–	19	-15.586	-15.586
O=C(CCl)Nc1cc(C(=O)O)ccc1Cl [PCM-0102590, O=C(CCl)Nc1cc(C(=O)O)ccc1Cl]	–	0	–	–	0	-17.114	-17.114
CCN(C(=O)CCl)C1CCS(=O)(=O)C1 (stereo not drawn) [PCM-0102105, CCN(C(=O)CCl)C1CCS(=O)(=O)C1]	–	0	–	–	0	-15.384	-15.384
O=C(CCl)NC1CCN(C(=O)c2ccco2)CC1 [PCM-0102619, O=C(CCl)NC1CCN(C(=O)c2ccco2)CC1]	–	0	–	–	10	-16.352	-16.352
CC1(C)CCCN1C(=O)CCl [PCM-0103060, CC1(C)CCCN1C(=O)CCl]	0	0	-15.914	-15.914	–	–	–
O=C(CCl)NCc1nc2ccccc2s1 [PCM-0102803, O=C(CCl)NCc1nc2ccccc2s1]	37	0	-16.252	-16.252	–	–	–
Cc1cc([N+](=O)[O-])ccc1NC(=O)CCl [PCM-0102134, Cc1cc([N+](=O)[O-])ccc1NC(=O)CCl]	–	10	–	–	11	-16.240	-16.240
O=C(CCl)Nc1ccccc1I [PCM-0102509, O=C(CCl)Nc1ccccc1I]	–	0	–	–	0	-16.748	-16.748
Cc1c(Cl)cccc1NC(=O)CCl [PCM-0102130, Cc1c(Cl)cccc1NC(=O)CCl]	–	0	–	–	0	-15.962	-15.962

Structure (SMILES)	OTUB2 % labeling (OTUB2; OTUB2 protein labeling) [%]	NUDT7 % labeling (NUDT7) [%]	ln(avg k) [1, 2]	ln(avg k) [1, 3]	OTUB2 % labeling (OTUB2) [%]	ln(avg k) [1, 4]	ln(avg k) [1, 5]
COC(=O)c1ccc(NC(=O)CCl)cc1 [PCM-0102204, COC(=O)c1ccc(NC(=O)CCl)cc1]	–	0	–	–	0	-15.628	-15.628
O=C(CCl)NNC(=O)C1CC1 [PCM-0102776, O=C(CCl)NNC(=O)C1CC1]	23	0	-17.370	-17.370	–	–	–
Cc1cccc(N2CCN(C(=O)CCl)CC2)c1 [PCM-0102185, Cc1cccc(N2CCN(C(=O)CCl)CC2)c1]	–	5	–	–	0	-15.479	-15.479
Cc1ccc(NC(=O)NC(=O)CCl)c(C)c1 [PCM-0102171, Cc1ccc(NC(=O)NC(=O)CCl)c(C)c1]	–	20	–	–	10	-15.812	-15.812
Cc1nc(CN2CCN(C(=O)CCl)CC2)cs1 [PCM-0102630, Cc1nc(CN2CCN(C(=O)CCl)CC2)cs1]	–	0	–	–	0	-15.690	-15.690
O=C(CCl)Nc1ccc([N+](=O)[O-])cc1C(F)(F)F [PCM-0102406, O=C(CCl)Nc1ccc([N+](=O)[O-])cc1C(F)(F)F]	–	0	–	–	0	-16.390	-16.390
O=C(CCl)N(C1CCCC1)C1CCS(=O)(=O)C1 (stereo not drawn) [PCM-0102313, O=C(CCl)N(C1CCCC1)C1CCS(=O)(=O)C1]	–	11	–	–	0	-15.397	-15.397
O=C(CCl)Nc1ccc([N+](=O)[O-])cc1Br [PCM-0102848, O=C(CCl)Nc1ccc([N+](=O)[O-])cc1Br]	0	24	-16.062	-16.062	–	–	–
O=C(CCl)N(C1CC1)C1CCS(=O)(=O)C1 (stereo not drawn) [PCM-0102832, O=C(CCl)N(C1CC1)C1CCS(=O)(=O)C1]	43	0	-16.200	-16.200	–	–	–
O=C(CCl)Nc1ccc2c(c1)OCCCO2 [PCM-0102409, O=C(CCl)Nc1ccc2c(c1)OCCCO2]	–	10	–	–	23	-15.744	-15.744
CS(C)(=O)=NC(=O)CCl [PCM-0102969, CS(C)(=O)=NC(=O)CCl]	0	0	-15.757	-15.757	–	–	–
CC1CCN(C(=O)CCl)C2CCCCC12 (stereo not drawn) [PCM-0102831, CC1CCN(C(=O)CCl)C2CCCCC12]	0	37	-15.612	-15.612	–	–	–
O=C(Nc1ccccc1)NN(C(=O)CCl)c1ccccc1 [PCM-0102957, O=C(Nc1ccccc1)NN(C(=O)CCl)c1ccccc1]	0	100	-15.066	-15.066	–	–	–
CC1CCCC(C)N1C(=O)CCl (stereo not drawn) [PCM-0102616, CC1CCCC(C)N1C(=O)CCl]	–	0	–	–	0	-15.945	-15.945
CCN(C(=O)CCl)c1ccccc1C [PCM-0102980, CCN(C(=O)CCl)c1ccccc1C]	0	43	-16.814	-16.814	–	–	–
O=C(CCl)Nc1nc2ccc(Br)cc2s1 [PCM-0102126, O=C(CCl)Nc1nc2ccc(Br)cc2s1]	–	100	–	–	12	-16.235	-16.235
O=C(CCl)N1CCN(c2ccccc2F)CC1 [PCM-0102373, O=C(CCl)N1CCN(c2ccccc2F)CC1]	–	0	–	–	0	-15.871	-15.871
NC(=O)c1c(NC(=O)CCl)sc2c1CCC2 [PCM-0102164, NC(=O)c1c(NC(=O)CCl)sc2c1CCC2]	–	28	–	–	0	-15.581	-15.581
Cc1ccc(NC(=O)CCl)c(F)c1 [PCM-0103028, Cc1ccc(NC(=O)CCl)c(F)c1]	14	0	-16.314	-16.314	–	–	–
O=C(CCl)Nc1cccc(F)c1 [PCM-0102364, O=C(CCl)Nc1cccc(F)c1]	–	9	–	–	0	-15.960	-15.960
O=C(CCl)NCC1CCOC1 (stereo not drawn) [PCM-0102596, O=C(CCl)NCC1CCOC1]	–	0	–	–	13	-16.248	-16.248
